Where two headings read alike, the source gives them in different places.
What was measured:
[1] = in vitro; format: cell-based; conditions: human
Description: (§1) Experimental method for in vitro biological activity study: The HCMV virus used in this experiment contains a reporter gene GFP. The inhibitory activity of the compounds against HCMV was detected by detecting the expression of GFP, and the cytotoxicity was also determined; the compounds were tested at 8 concentrations, with 3-fold gradient dilution, and double wells. MRC5 cells were seeded in microtiter plates at a certain density and cultured overnight at 37° C. in 5% CO2. The compounds and viruses were added the next day. […] The final concentration of DMSO in the cell culture medium was 0.5%, the cells were cultured at 37° C. in 5% CO2 for 7 days, the fluorescence value of each well was detected using Acumen, and the original data were used to calculate the antiviral activity of the compounds. The cytotoxicity experiment was the same as the antiviral experiment, but without viral infection; CCK-8 reagent was used to detect cell viability, and the original data were used to calculate the cytotoxicity of the compounds.

[2] = test system: HCMV; test: In vitro anti-HCMV activity, GFP reporter virus in MRC5 cells; format: cell-based, Human Cytomegalovirus
Description: Experimental method for in vitro biological activity study: The HCMV virus used in this experiment contains a reporter gene GFP. The inhibitory activity of the compounds against HCMV was detected by detecting the expression of GFP, and the cytotoxicity was also determined; the compounds were tested at 8 concentrations, with 3-fold gradient dilution, and double wells. MRC5 cells were seeded in microtiter plates at a certain density and cultured overnight at 37° C. in 5% CO2. The compounds and viruses were added the next day. […] The final concentration of DMSO in the cell culture medium was 0.5%, the cells were cultured at 37° C. in 5% CO2 for 7 days, the fluorescence value of each well was detected using Acumen, and the original data were used to calculate the antiviral activity of the compounds. The cytotoxicity experiment was the same as the antiviral experiment, but without viral infection; CCK-8 reagent was used to detect cell viability, and the original data were used to calculate the cytotoxicity of the compounds. Software GraphPad Prism was used to analyze the dose-response curves of the compounds and calculate the EC50 and CC50 values (see Table 1 for the results).

[3] = test system: MRC5 cells; test: in vitro; format: cell-based; conditions: human, 7 days
Description: as §1

[4] = Hepatocyte metabolic stability test; format: in vitro ADME, Human; conditions: for half-life at 1 μM / hepatocyte CLint at 1 μM: tested compounds 1 μM; for CLint scaled at 1 μM: Human, scaled with 120 × 10^6 cells/g liver and 21 g liver/kg, read-out: CLint, hepatic
Description: (§2) Test method: The compounds to be tested will be co-incubated with human hepatocyte suspension at a concentration of 1 μM. At different time points, ice acetonitrile containing internal standard was added to the system to terminate the reaction, after vortexing and centrifugation, the supernatant was taken, and the test compounds in the supernatant were analyzed by LC-MS/MS method. The in vitro intrinsic clearance rate was calculated according to the clearance rate constant of the tested compounds in the incubation system. 7-ethoxycoumarin and 7-hydroxycoumarin were used as positive controls, and the blank culture medium incubation group without hepatocytes was used as negative control.
(§3) Data analysis: The ratio of the peak areas of the analyte/internal standard (Aanalyte/AIS) was obtained by the instrument, and the remaining percentage (% Control) was calculated from the ratio of Aanalyste/AIS in the sample at non-zero time point to that at the zero time point. Ln (% Control) was plotted against incubation time and linearly fitted. The clearance constant (k, min^−1), clearance half-life (T1/2, min), and in vitro intrinsic clearance rate (CLint, hepatocyte, μL/min/10^6 cells) of the tested compounds were calculated using the following equation.
(§4) CLint,hepatic (mL/min/kg) refers to the inherent clearance rate of liver in vivo.

[5] = test system: human hepatocyte suspension; test: Hepatocyte metabolic stability test; format: in vitro ADME; conditions: for k: Human hepatocytes 1.0 × 10^6 cells/mL, tested compounds 1 μM, positive control 3 μM
Description: as §2, §3, §4

[6] = cited from earlier work
[7] = test system: CMV virus; conditions: after 28 days of treatment; cited from earlier work
[8] = Human betaherpesvirus 5, 168 h, HCMV with GFP reporter, MRC5 cells, 7 days, read-out: EC50
[9] = Human betaherpesvirus 5, MRC5, Table 1, read-out: activity in inhibiting HCMV
[10] = hepatocyte suspension, Human hepatocytes 1.0 × 10^6 cells/mL, positive control 3 μM
[11] = Human hepatocytes 1.0 × 10^6 cells/mL, positive control 3 μM

| SMILES | CC50 at 7 days [1] [nM] | EC50 [2, 8] [nM] | EC50 [2, 9] [nM] | further results |
| --- | --- | --- | --- | --- |
| COc1cc(N2CCN(C3=Nc4c(F)cccc4[C@H](CC(=O)OCOC(C)=O)N3c3cc(C(F)(F)F)ccc3OC)C[C@H]2C)ccn1 [Compound I-53] | > 50000 | 0.32 | < 1 |  |
| COc1cccc(N2CCN(C3=Nc4c(F)cccc4[C@H](CC(=O)OCOC(=O)C(C)(C)C)N3c3cc(C(F)(F)F)ccc3OC)CC2)c1 [Compound I-13] | > 50000 | 2.76 |  |  |
| COc1cccc(N2CCN(C3=Nc4c(F)cccc4C(CC(=O)OCc4oc(=O)oc4C)N3c3cc(C(F)(F)F)ccc3OC)C[C@H]2C)c1 (single isomer, unassigned) [Compound I-41] | 39300 | 0.15 | < 1 |  |
| COc1cc(N2CCN(C3=Nc4c(F)cccc4C(CC(=O)O)N3c3cc(C(F)(F)F)ccc3OC)C[C@H]2C)ccn1 (stereo partly shown) [Compound I-24] | > 50000 | 0.46 | < 1 |  |
| COc1cccc(N2CC3CCC(C2)N3C2=Nc3c(F)cccc3C(CC(=O)O)N2c2cc(C(F)(F)F)ccc2OC)c1 (stereo not shown) [Compound I-19] | 23800 | 2.81 |  |  |
| COc1cccc(N2CCN(C3=Nc4c(F)cccc4C(CC(=O)O)N3c3cc(C(F)(F)F)ccc3OC)C[C@H]2C)c1 (stereo partly shown) [Compound I-23] | > 50000 | 0.28 | < 1 |  |
| COc1cccc(N2CCN(C3=Nc4c(F)cccc4[C@H](CC(=O)OCc4oc(=O)oc4C)N3c3cc(C(F)(F)F)ccc3OC)CC2)c1 [Compound I-17] |  | 1.52 |  | CC50 [3]: 43500 nM |
| CCOc1ccc2ccc(=O)oc2c1 [7-ethoxycoumarin] |  |  |  | half-life at 1 μM [4, 10]: 0.332 h; hepatocyte CLint at 1 μM [4, 10]: 34.8 µL/min/1e6 cells; CLint scaled at 1 μM ([4]; hepatocyte suspension): 87.7 mL/min/kg; k [5]: 0.0348 min⁻¹ |
| COc1cccc(N2CCN(C3=Nc4c(F)cccc4[C@H](CC(=O)OCOC(C)=O)N3c3cc(C(F)(F)F)ccc3OC)C[C@H]2C)c1 [Compound I-33] | > 50000 | 0.06 | < 1 |  |
| COc1cccc(N2CCN(C3=Nc4c(F)cccc4[C@H](CC(=O)O)N3c3cc(C(F)(F)F)ccc3OC)CC2)c1 [Letermovir, letermovir] |  |  |  | half-life at 1 μM [4, 10]: 5.27 h; hepatocyte CLint at 1 μM [4, 10]: 2.2 µL/min/1e6 cells; CLint scaled at 1 μM ([4]; hepatocyte suspension): 5.53 mL/min/kg; k [5]: 0.0022 min⁻¹; bioavailability ([6]; hematopoietic cell transplant (HCT) recipients, letermovir alone): about 37%; bioavailability ([6]; with cyclosporin): 85%; CMV virus detection in the patient [7]: no CMV virus was detected |
| COc1cccc(N2CCN(C3=Nc4c(F)cccc4[C@H](CC(=O)O)N3c3cc(C(F)(F)F)ccc3OC)CC2)c1 (racemic) [Letermovir (racemic), letermovir (racemic), reference compound] |  |  |  | EC50 ([2]; HCMV with GFP reporter, MRC5 cells, 7 days, read-out: EC50): 3.92 nM |
| COc1cc(N2CCN(C3=Nc4c(F)cccc4C(CC(=O)OCOC(C)=O)N3c3cc(C(F)(F)F)ccc3OC)CC2C)ccn1 (stereo not shown) [Compound I-49] | > 50000 | 0.46 | < 1 |  |
| COc1cc(N2CCN(C3=Nc4c(F)cccc4[C@H](CC(=O)O)N3c3cc(C(F)(F)F)ccc3OC)C[C@H]2C)ccn1 [Compound I-26] | > 50000 | 0.26 | < 1 |  |
| COc1cccc(N2CCN(C3=Nc4c(F)cccc4[C@H](CC(=O)O)N3c3cc(C(F)(F)F)ccc3OC)C[C@H]2C)c1 [Compound I-25] | > 50000 | 0.17 | < 1 | half-life at 1 μM [4, 10]: 74.9 h; hepatocyte CLint at 1 μM [4, 10]: 0.154 µL/min/1e6 cells; CLint scaled at 1 μM ([4]; hepatocyte suspension): 0.388 mL/min/kg; k [5]: 0.000154 min⁻¹; metabolic stability of human hepatocytes compared with letermovir ([5]; human hepatocytes): better metabolic stability |
| O=c1ccc2ccc(O)cc2o1 [7-hydroxycoumarin] |  |  |  | half-life [4, 11]: 0.288 h; hepatocyte CLint at 1 μM [4, 11]: 40.1 µL/min/1e6 cells; CLint scaled at 1 μM ([4]; hepatocytes): 101 mL/min/kg; k [5]: 0.0401 min⁻¹ |
| COC(=O)OCOC(=O)C[C@H]1c2cccc(F)c2N=C(N2CCN(c3cccc(OC)c3)CC2)N1c1cc(C(F)(F)F)ccc1OC [Compound I-5] | > 50000 | 2.62 |  |  |
| COc1cccc(N2CCN(C3=Nc4c(F)cccc4[C@H](CC(=O)OCOC(C)=O)N3c3cc(C(F)(F)F)ccc3OC)CC2)c1 [Compound I-8] | > 50000 | 1.47 |  |  |

— US20250163069A1, “HETEROCYCLIC DERIVATIVE, AND PHARMACEUTICAL COMPOSITION AND APPLICATION THEREOF” (priority 2022, published 2025)
